From paper PMC4980843 (European journal of medicinal chemistry, 2009)
Where two headings read alike, the source gives them in different places.

Experiments:
human PDE3A isozyme = human PDE3A isozyme (Homo sapiens, UniProt Q14432); test: IMAP fluorescence polarization phosphodiesterase assay; type: biochemical; details: for % PDE3 Inhibition at 50 μM, cGMP: cGMP as substrate
[1] = tested on: human HT-29 colon tumor cell line; test: Tumor cell growth inhibition, Cell Titer Glo assay, 72 h; type: cell-based; details: HT-29 cells

human PDE3A isozyme, sequence (Q14432 whole entry): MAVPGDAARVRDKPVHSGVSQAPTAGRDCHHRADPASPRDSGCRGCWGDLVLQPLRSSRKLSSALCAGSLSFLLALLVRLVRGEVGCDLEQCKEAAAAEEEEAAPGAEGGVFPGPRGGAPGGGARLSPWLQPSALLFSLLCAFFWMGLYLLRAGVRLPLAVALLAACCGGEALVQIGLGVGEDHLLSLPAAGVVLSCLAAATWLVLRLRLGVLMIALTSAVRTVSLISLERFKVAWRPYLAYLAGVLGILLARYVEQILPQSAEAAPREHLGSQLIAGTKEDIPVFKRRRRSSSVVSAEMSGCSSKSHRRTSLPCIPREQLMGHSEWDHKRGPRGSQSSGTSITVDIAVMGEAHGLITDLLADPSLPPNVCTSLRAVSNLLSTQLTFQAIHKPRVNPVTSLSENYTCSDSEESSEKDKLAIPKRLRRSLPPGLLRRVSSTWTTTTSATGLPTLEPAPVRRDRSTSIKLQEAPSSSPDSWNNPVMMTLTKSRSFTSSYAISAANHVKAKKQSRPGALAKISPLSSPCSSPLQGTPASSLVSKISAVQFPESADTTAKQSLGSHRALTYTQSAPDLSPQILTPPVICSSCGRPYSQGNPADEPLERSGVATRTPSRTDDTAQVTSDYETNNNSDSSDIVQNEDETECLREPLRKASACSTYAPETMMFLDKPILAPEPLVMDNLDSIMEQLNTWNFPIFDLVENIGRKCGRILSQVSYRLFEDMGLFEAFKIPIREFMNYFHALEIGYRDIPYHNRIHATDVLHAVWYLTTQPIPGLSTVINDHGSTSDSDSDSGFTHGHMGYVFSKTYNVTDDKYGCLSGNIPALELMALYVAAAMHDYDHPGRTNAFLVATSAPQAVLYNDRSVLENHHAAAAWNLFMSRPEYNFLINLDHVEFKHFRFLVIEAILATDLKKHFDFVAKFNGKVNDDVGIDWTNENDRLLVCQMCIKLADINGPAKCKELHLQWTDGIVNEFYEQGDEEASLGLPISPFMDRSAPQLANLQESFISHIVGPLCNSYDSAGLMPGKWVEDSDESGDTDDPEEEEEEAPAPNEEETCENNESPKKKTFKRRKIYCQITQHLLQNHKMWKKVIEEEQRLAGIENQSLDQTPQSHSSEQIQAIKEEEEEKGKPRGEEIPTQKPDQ

Compound: 2-Imino-4-phenyl-6-(thiophen-3-yl)-1,2-dihydropyridine-3-carbonitrile [Compound 25]
- % PDE3 Inhibition at 50 μM, cAMP (human PDE3A isozyme; 50 μM, cAMP as substrate): 21%
- % PDE3 Inhibition at 50 μM, cGMP (human PDE3A isozyme; 50 μM): 26%

Compound: N#Cc1c(-c2ccccc2O)cc(-c2ccc(Br)cc2)[nH]c1=O [Compound 1, 6-(4-Bromophenyl)-4-(2-hydroxyphenyl)-2-oxo-1,2-dihydropyridine-3-carbonitrile]
- tumor cell growth inhibitory activity (in words) [1]: displayed tumor cell growth inhibitory activity

Compound: COc1ccc(OC)c(-c2cc(-c3ccc(Br)cc3)[nH]c(=N)c2C#N)c1 [Compound 9, 6-(4-Bromophenyl)-4-(2,5-dimethoxyphenyl)-2-imino1,2-dihydropyridine3-carbonitrile]
- tumor cell growth inhibitory activity (in words) [1]: displayed tumor cell growth inhibitory activity

Compound: N#Cc1c(-c2cccc(Cl)c2)cc(-c2ccccc2)[nH]c1=O [Compound 15, 4-(3-Chlorophenyl)-2-oxo-6-phenyl-1,2-dihydropyridine-3-carbonitrile]
- tumor cell growth inhibitory activity (in words) [1]: displayed tumor cell growth inhibitory activity

Compound: N#Cc1c(-c2ccccc2O)cc(-c2ccsc2)[nH]c1=O [Compound 19, 4-(2-Hydroxyphenyl)-2-oxo-6-thiophen-3-yl-1,2-dihydropyridine-3-carbonitrile]
- tumor cell growth inhibitory activity (in words) [1]: displayed tumor cell growth inhibitory activity

Compound: CCOc1ccccc1-c1cc(-c2ccsc2)[nH]c(=O)c1C#N [Compound 21, 4-(2-Ethoxyphenyl)-2-oxo-6-thiophen-3-yl-1,2-dihydropyridine-3 carbonitrile]
- tumor cell growth inhibitory activity (in words) [1]: displayed tumor cell growth inhibitory activity

Compound: CCOc1ccc(-c2cc(-c3ccsc3)[nH]c(=N)c2C#N)cc1 [Compound 26, 4-(4-Ethoxyphenyl)-2-imino-6-(thiophen-3-yl)-1,2-dihydropyridine-3-carbonitrile]
- tumor cell growth inhibitory activity (in words) [1]: no tumor cell growth inhibitory activity
- % PDE3 Inhibition at 50 μM, cGMP (human PDE3A isozyme; 50 μM): > 50%
- inhibition at 50 µM (human PDE3A isozyme; read-out: % PDE3 Inhibition at 50 μM, cAMP, 50 μM, cAMP as substrate): > 50%

Compound: CCOc1ccccc1-c1cc(-c2ccsc2)[nH]c(=N)c1C#N [Compound 27, 4-(2-Ethoxyphenyl)-2-imino-6-(thiophen-3-yl)-1,2-dihydropyridine-3-carbonitrile]
- tumor cell growth inhibitory activity (in words) [1]: displayed tumor cell growth inhibitory activity

Compound: COc1ccc(-c2cc(-c3ccsc3)[nH]c(=N)c2C#N)cc1 [Compound 28, 2-Imino-4-(4-methoxyphenyl)-6-(thiophen-3-yl)-1,2-dihydropyridine-3-carbonitrile]
- tumor cell growth inhibitory activity (in words) [1]: displayed tumor cell growth inhibitory activity

Compound: COc1ccccc1-c1cc(-c2ccsc2)[nH]c(=N)c1C#N [Compound 29, 2-Imino-4-(2-methoxyphenyl)-6-(thiophen-3-yl)-1,2-dihydropyridine-3-carbonitrile]
- tumor cell growth inhibitory activity (in words) [1]: displayed tumor cell growth inhibitory activity
- inhibition at 50 µM (human PDE3A isozyme; read-out: % PDE3 Inhibition at 50 μM, cGMP, 50 μM, cGMP as substrate): -95%
